Read-outs that look alike come from different tables or passages of the source.
Tests used:
KSR = biological target: T1, KSR (Mus musculus, UniProt Q61097); assay: KSR activity toward Raf-1 peptides in vitro; format: biochemical, mouse (KSR immunoprecipitated from COS-7 cells); parameters: Raf-1 peptides as substrate; settings: for KSR activity towards substrate peptide: 30 nM ceramide, 5 min
T1 sequence (Q61097 1-873): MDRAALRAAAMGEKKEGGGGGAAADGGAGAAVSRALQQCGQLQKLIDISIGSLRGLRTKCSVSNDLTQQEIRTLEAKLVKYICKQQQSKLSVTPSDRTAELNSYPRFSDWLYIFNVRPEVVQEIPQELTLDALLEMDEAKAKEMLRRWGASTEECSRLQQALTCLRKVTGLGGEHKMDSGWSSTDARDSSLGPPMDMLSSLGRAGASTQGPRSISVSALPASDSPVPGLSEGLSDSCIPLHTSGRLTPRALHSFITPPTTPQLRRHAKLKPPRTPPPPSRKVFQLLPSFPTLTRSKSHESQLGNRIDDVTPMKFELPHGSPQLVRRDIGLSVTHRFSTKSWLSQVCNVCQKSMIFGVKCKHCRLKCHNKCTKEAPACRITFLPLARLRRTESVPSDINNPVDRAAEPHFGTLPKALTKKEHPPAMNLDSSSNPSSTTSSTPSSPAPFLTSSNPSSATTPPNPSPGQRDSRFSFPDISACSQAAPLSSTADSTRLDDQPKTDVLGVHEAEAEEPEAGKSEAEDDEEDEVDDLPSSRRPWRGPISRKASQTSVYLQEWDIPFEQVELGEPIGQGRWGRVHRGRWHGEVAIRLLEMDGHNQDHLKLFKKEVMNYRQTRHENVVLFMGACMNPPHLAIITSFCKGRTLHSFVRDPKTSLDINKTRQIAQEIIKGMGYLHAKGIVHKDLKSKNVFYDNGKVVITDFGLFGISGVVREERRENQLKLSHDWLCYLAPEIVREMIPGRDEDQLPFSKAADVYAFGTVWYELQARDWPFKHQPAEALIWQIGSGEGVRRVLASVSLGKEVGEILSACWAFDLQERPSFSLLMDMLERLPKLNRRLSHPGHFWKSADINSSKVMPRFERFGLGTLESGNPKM
Method: The wild type peptide contains eight potential phosphorylation sites (shown in bold). Substitution of alanines and glycines for serines and threonines generated one peptide (TTLP-peptide) containing only two potential phosphorylation sites (Thr^268,269) and another peptide (AALP-peptide) with no potential phosphorylation sites.
FIG. 28A--Flag-tagged KSR was immunoprecipitated from 0.2 mg COS-7 lysate, and assayed with TTLP- or AALP-peptides in the presence of 30 nM ceramide (Avanti) or diluent (DMSO). Background counts per minute (cpm) derived from samples incubated with the AALP-peptide which contains no phosphorylation sites were subtracted from all points. Background cpm always represented less than 25% of the untreated total.
FIG. 28B--Flag-tagged KSR immunoprecipitated from 0.2 mg COS-7 lysate was assayed with TTLP- or AALP-peptides in the presence of ceramide or diluent for 45 min as described in FIG. 7A.
FIG. 28C--Flag-tagged KSR was immunoprecipitated from 0.15 mg COS-7 lysate and assayed with TTLP- or AALP-peptides for 20 min in the presence of 30 nM of the indicated lipid second messengers as described in FIG. 28A (AA: arachidonic acid; LPA: lyso phosphatidic acid; PMA: phorbol 12-myristate 13-acetate; DAG: 1,2-diacylglycerol).
KSR-bound beads were incubated with reaction buffer B plus 10 mM MnCl2, 5 μM ATP and [γ-^32 P]ATP at 22° C. for the period of time indicated in the presence of 0.3 mM synthetic Raf-peptide or substrate peptides specific for other Ser/Thr protein kinases. […] (SEQ ID NO.3). Substitution of glycines and alanines for serines and threonines generated one peptide (termed TTLP-peptide) containing only two potential phosphorylation sites at Thr^268,269 (in bold), […] (SEQ ID NO. 24), and another peptide (termed AALP-peptide; SEQ ID No.6) with no potential phosphorylation sites, […] (SEQ ID No.25). The amino acid sequences of substrate peptides specific for other protein kinases (Joseph et al., 1993) are: […] (SEQ ID NO.26) (PKA); […] (SEQ ID NO.27) (S6 kinase); […] (SEQ ID NO.28)(CK II); […] (SEQ ID NO.29) (CaM kinase II); and […] (SEQ ID NO.30) (PKC). […] Substrate peptides for PKA and PKC were from Sigma (St. Louis, Mo.). The reaction was stopped by addition of a stop solution containing 0.5 M ATP in 90% formic acid. The beads were removed by centrifugation at 5000×g for 2 min and the supernatant was loaded on P81 Whatman filter paper. The filter was air dried and washed in 4 mM Na2 H2 P2 O7, 1 mM acetic acid for one hour. The filter was baked at 90° C. for 10 min and quantified by Cerenkov counting using a Beckman LS 5000TD scintillation counter. In some experiments, samples were separated by C18 reverse-phase chromatography on HPLC (Mathias et al., 1991) to verify the results of the filter assay. Virtually identical results were obtained with both methods.

[1] = test system: ceramide-activated protein kinase
[2] = test system: ceramide-activated protein kinase; assay: EGFR peptide phosphorylation by kinase in A-431 microsomal membranes / postnuclear supernatant; format: biochemical, human (A-431 epidermoid carcinoma cells); settings: words
Method: Kinetics of ^32 Pi incorporation into the EGFR peptide. […] The reaction was initiated by addition of 50 μl of [γ-^32 P]ATP (150 μM final concentration) and terminated by addition of 50 μl of 0.5 M ATP in 90% (vol/vol) formic acid. Samples were spotted on phosphocellulose paper, washed with 1 M acetic acid/4 mM pyrophosphate, and ^32 P incorporation was measured by liquid-scintillation counting, as described. A boiled protein blank was subtracted from each data value. The data (means) represent duplicate samples from one of two similar experiments. […]
Kinetics of ceramide-induced ^32 Pi incorporation into EGFR peptide. Peptide phosphorylation was done as described in FIG. 2 in the absence (.smallcircle.) or presence (.circle-solid.) of 0.5 μM C8 -ceramide. Phosphorylated peptide was resolved by HPLC. Values (means) represent data from three experiments.
Concentration-dependence of ceramide-induced ^32 Pi incorporation into EGFR peptide. Peptide phosphorylation reactions were done as described for FIG. 2, for 2 minutes, using various concentrations of ceramide (0.001-3 μM). Phosphorylated peptide was resolved by HPLC. Values (means) represent data from three experiments. […]
Phosphorylation was initiated at 22° C. by addition of 50 μl of [γ-^32 P] ATP (150 μM final concentration; 4000 dpm/pmol). For studies with lipid activators, ceramide and other lipids were dried under N2 and resuspended in the kinase assay buffer by bath sonication for 2 minutes at 37° C.
Phosphorylated peptide was quantified by two separate methods. For initial studies, samples were spotted on phosphocellulose paper, washed in 1 M acetic acid/4 mM pyrophosphate and subjected to liquid scintillation counting, according to methods well known to those skilled in the art. Values obtained from a boiled blank or a sample lacking peptide were subtracted from each determination. Alternatively, HPLC was done according to methods well known to those skilled in the art. For these studies, samples were first applied to a C18 Sep-Pak cartridge and eluted with 99.9% acetonitrile/0.1% trifluoroacetic acid. The eluates were lyophilized, resuspended in 6 M guanidine hydrochloride/200 mM Tris, pH 8.5 and applied to a C18 reverse-phase column (Dynamax, 4.6 mm i.d., Rainin, Woburn, Mass.). The peptide was eluted with a linear gradient (1% per minute) of acetonitrile at a flow rate of 1 ml/minute and was detected by measuring the Cerenkov radiation associated with 1-ml fractions.

EL-4 cells = assay: Sphingomyelin and ceramide levels in intact EL-4 cells; format: cell-based, murine; settings: maximally effective concentrations (n=5)
Method: IL-1β effects on sphingomyelin levels in EL4 cells. Time course (A) and dose response (B). Cells were grown to growth arrest (1-1.5×10^6 cells ml^-1) in DME/Ham's F12 medium (1:1, v/v) containing 10% horse serum and for 48 hours [^3 H]choline (1 μCi ml^-1). On the day of an experiment, cells were resuspended back into the same medium at 10×10^6 cells ml^-1 and stimulated with 40 ng ml^-1 IL-1β for the indicated times (A) or for 30 minutes with increasing concentrations of IL-1β (B). Human IL-1β may be obtained using methods well known to those skilled in the art. Reactions were terminated with CHCl3 :CH3 OH:HCl (100:100:1) containing 10 mM EDTA (82). Lipids in the organic phase extract were dried under N2 and subjected to mild alkaline hydrolysis (0.1 M methanolic KOH for 1 hour at 37° C.) to remove glycerophospholipids. Sphingomyelin was resolved by thin-layer chromatography (TLC) using CHCl3 :CH3 OH:CH3 COOH:H2 O (60:30:8:5) as solvent, identified by iodine vapor staining, and quantified by liquid scintillation spectrometry. As previously reported, the use of [^3 H]choline as a measure of sphingomyelin content was validated by simultaneous phospholipid phosphorus measurements. Each value represents the mean±SEM of triplicate determinations from four experiments in (A), and one representative of four similar studies performed in triplicate in (B).
Effect of IL-1β on ceramide levels in EL-4 cells. Cells were stimulated as in FIG. 12 with IL-1β (40 ng ml^-1) and ceramide contained within the organic phase extract quantified enzymatically using the E. coli diacylglycerol kinase reaction. Lipids were resolved by TLC using CHCl3 :CH3 OH:CH3 COOH (65/15/5) as solvent, autoradiographed and quantified by liquid scintillation spectrometry. Each value represents the mean±SEM of triplicate determinations from 10 experiments.
The murine thymoma EL-4 cell line is a well-defined IL-1 responsive cell line that expresses functional IL-1 receptors. Upon stimulation with IL-1, these cells up-regulate the IL-2 receptor and secrete IL-2 [62]. Initial studies were designed to investigate the effects of IL-1β on cellular sphingomyelin content. Cells, grown in Dulbecco's Modified Eagle's (DME)/Ham's F-12 medium containing 10% horse serum and [^3 H]choline (1 μCi ml^-1), were resuspended back into the same medium at 10×10^6 cells ml^-1 and stimulated with IL-1β. IL-1β is commercially available.

PLARTLSVAGLPGK [CaM kinase II substrate peptide]
KSR activity towards substrate peptide (KSR): minimal activity

RQRGAGAPNVHMVGTTLPVDGRMIE [TTLP-peptide]
phosphorylation of peptide by KSR (KSR): same extent

cholera toxin
effect on kinase activity in membranes of stimulated HL-60 cells [1]: not stimulated

CCCCCCCCCCCCC/C=C/[C@@H](O)[C@H](CO)NC(=O)CCCCCCC [C8-ceramide, N-octanoylsphingosine]
effect on EGFR peptide phosphorylation [2]: similarly effective | maximal kinase activity, fold of control ([1]; 10 μM C8-cer added to medium): 1.5 fold of control

CNC[C@H](O)c1ccc(O)c(O)c1 [epinephrine]
ceramide response (EL-4 cells): failed to elicit a ceramide response

GRGLSLSR [PKA substrate peptide]
KSR activity towards substrate peptide (KSR): minimal activity

LSSLRASTSKSGGQK [S6 kinase substrate peptide]
KSR activity towards substrate peptide (KSR): minimal activity

CCCCCCCCCCCCCCCC(=O)O [palmitic acid]
effect on EGFR peptide phosphorylation [2]: failed to increase EGFR peptide phosphorylation

CC1=C(/C=C/C(C)=C/C=C/C(C)=C/C(=O)O)C(C)(C)CCC1 [retinoic acid]
effect on kinase activity in membranes of stimulated HL-60 cells ([1]; cholera toxin 10 nM, retinoic acid 0.5 μM, butyrate 0.5 mM): not stimulated

RRREEETEEE [CK II substrate peptide]
KSR activity towards substrate peptide (KSR): minimal activity

dihydroceramide
activation of KSR (KSR): fail to activate KSR

RQRGAGAPNVHMVGAALPVDGRMIE [AALP-peptide]
phosphorylation of peptide by KSR (KSR): negligible

VRKRTLRRL [PKC substrate peptide]
KSR activity towards substrate peptide (KSR): minimal activity

concanavalin A
ceramide response (EL-4 cells): failed to elicit a ceramide response

— patent US6040149A, “Assay for identifying agents which act on the ceramide-activated protein kinase, kinase suppressor of ras, and methods of using said agents” (priority 1997, dated 2000)
